Here are results for eight cell lines from the supplement of paper PMC10307832.

Test in all cases: relative viability (nuclei count vs DMSO), 5 days (fraction); higher = more cells survive
Compound in assay [1]: CC(C)(C)c1nc(-c2cccc(NS(=O)(=O)c3c(F)cccc3F)c2F)c(-c2ccnc(N)n2)s1 [Dabrafenib] + CC(C)C[C@H](NC(=O)[C@H](Cc1ccccc1)NC(=O)c1cnccn1)B(O)O [Bortezomib] (partner 0.002 µM)
The method in brief: (§1)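 Lung cancer cell lines were seeded in 1536-well plates and dosed by pin tool the next day, with either a single drug or a fixed anchor-drug dose combined with five library-drug doses (not always all listed) spaced in √10 steps. Five days later, one step fixed the cells and stained their nuclei (final 0.05% Triton X-100, 1% formaldehyde, 1 ug/ml Hoechst), and nuclei were counted on 4× images. Relative viability is the nuclei count in treated wells divided by the count in vehicle wells, and each value is the median of duplicate plates.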

Compound in assay [2]: CC(C)(C)c1nc(-c2cccc(NS(=O)(=O)c3c(F)cccc3F)c2F)c(-c2ccnc(N)n2)s1 [Dabrafenib] + C[C@@H](Oc1cc(-c2cnn(C3CCNCC3)c2)cnc1N)c1c(Cl)ccc(F)c1Cl [Crizotinib] (partner 1 µM)
The procedure, abridged:
as §1

Compound in assay [3]: NC(=O)c1ccc(N(C(N)=O)c2c(F)cccc2F)nc1-c1ccc(F)cc1F [VX-702] + CC(C)C[C@H](NC(=O)[C@H](Cc1ccccc1)NC(=O)c1cnccn1)B(O)O [Bortezomib] (partner 0.002 µM)
The method in brief:
as §1

Compound in assay [4]: NC(=O)c1ccc(N(C(N)=O)c2c(F)cccc2F)nc1-c1ccc(F)cc1F [VX-702] + NC(=O)Nc1cc(-c2cccc(F)c2)sc1C(=O)N[C@H]1CCCNC1 [AZD7762] (partner 0.2 µM)
The procedure, abridged: as §1

As for NCI-H1703, the relative viability amounted to 0.422 in assay [1] (first compound 0.003 µM); 0.496 in assay [1] (first compound 0.009487 µM); 0.409 in assay [1] (first compound 0.03 µM); 0.28 in assay [1] (first compound 0.09487 µM); 0.43 in assay [1] (first compound 0.3 µM); 1.09 in assay [2] (first compound 0.003 µM). Moreover, the relative viability in assay [2] (first compound 0.009487 µM) was 0.76; in assay [2] (first compound 0.03 µM), 0.584; in assay [2] (first compound 0.09487 µM) it was 0.609; in assay [2] (first compound 0.3 µM) it was 0.729; in assay [3] (first compound 0.02 µM), 0.286; in assay [3] (first compound 0.2 µM), 0.37. Further, the relative viability in assay [3] (first compound 0.6325 µM) amounted to 0.255; in assay [3] (first compound 2 µM), 0.289; in assay [4] (first compound 0.02 µM), 0.123; in assay [4] (first compound 0.2 µM) it was 0.117; in assay [4] (first compound 2 µM), 0.115.

With NCI-H1734, the relative viability in assay [1] (first compound 0.009487 µM) turned out to be 0.936; in assay [1] (first compound 0.03 µM), 0.549; in assay [1] (first compound 0.09487 µM), 0.757; in assay [1] (first compound 0.3 µM) it was 0.828; in assay [2] (first compound 0.009487 µM) it was 0.702; in assay [2] (first compound 0.03 µM) it was 0.475. The relative viability in assay [2] (first compound 0.09487 µM) is 0.696; in assay [2] (first compound 0.3 µM), 0.687; in assay [3] (first compound 0.02 µM) it was 0.865; in assay [3] (first compound 0.2 µM) it was 0.844; in assay [3] (first compound 0.6325 µM), 0.847; in assay [3] (first compound 2 µM), 0.738. The relative viability in assay [4] (first compound 0.02 µM) was 0.561; in assay [4] (first compound 0.2 µM) it was 0.448; in assay [4] (first compound 0.6325 µM), 0.521; in assay [4] (first compound 2 µM), 0.465.

NCI-H1755: the relative viability is 0.972 in assay [1] (first compound 0.003 µM); 0.924 in assay [1] (first compound 0.009487 µM); 0.908 in assay [1] (first compound 0.03 µM); 0.914 in assay [1] (first compound 0.09487 µM); 0.903 in assay [1] (first compound 0.3 µM); 0.896 in assay [2] (first compound 0.003 µM). The relative viability was determined as 0.89 in assay [2] (first compound 0.009487 µM); 0.648 in assay [2] (first compound 0.03 µM); 0.824 in assay [2] (first compound 0.09487 µM); 0.884 in assay [2] (first compound 0.3 µM); 0.964 in assay [3] (first compound 0.02 µM); 0.911 in assay [3] (first compound 0.2 µM). In addition, the relative viability in assay [3] (first compound 0.6325 µM) came to 1.07; in assay [3] (first compound 2 µM), 0.979; in assay [4] (first compound 0.02 µM) it was 0.456; in assay [4] (first compound 0.2 µM) it was 0.442; in assay [4] (first compound 0.6325 µM), 0.447; in assay [4] (first compound 2 µM), 0.367.

NCI-H1792: the relative viability in assay [1] (first compound 0.009487 µM) came to 0.923; in assay [1] (first compound 0.03 µM), 0.897; in assay [1] (first compound 0.09487 µM) it was 0.885; in assay [1] (first compound 0.3 µM), 0.893; in assay [2] (first compound 0.009487 µM) it was 0.974; in assay [2] (first compound 0.03 µM), 0.891. Further, the relative viability in assay [2] (first compound 0.09487 µM) is 0.833; in assay [2] (first compound 0.3 µM), 0.873; in assay [3] (first compound 0.02 µM) it was 0.863; in assay [3] (first compound 0.2 µM), 0.978; in assay [3] (first compound 0.6325 µM), 0.966; in assay [3] (first compound 2 µM), 1.21. The relative viability in assay [4] (first compound 0.02 µM) came to 0.635; in assay [4] (first compound 0.2 µM), 0.669; in assay [4] (first compound 0.6325 µM) it was 0.707; in assay [4] (first compound 2 µM), 0.706.

On to NCI-H1915, for which the relative viability stood at 0.975 in assay [1] (first compound 0.003 µM); 0.99 in assay [1] (first compound 0.009487 µM); 0.899 in assay [1] (first compound 0.03 µM); 0.584 in assay [1] (first compound 0.09487 µM); 0.502 in assay [1] (first compound 0.3 µM); 0.994 in assay [2] (first compound 0.003 µM). In addition, the relative viability in assay [2] (first compound 0.009487 µM) was 0.893; in assay [2] (first compound 0.03 µM) it was 0.721; in assay [2] (first compound 0.09487 µM), 0.752; in assay [2] (first compound 0.3 µM), 0.731; in assay [3] (first compound 0.02 µM) it was 1.06; in assay [3] (first compound 0.2 µM), 0.893. The relative viability in assay [3] (first compound 0.6325 µM) was 0.991; in assay [3] (first compound 2 µM), 1.01; in assay [4] (first compound 0.02 µM), 0.697; in assay [4] (first compound 0.2 µM) it was 0.728; in assay [4] (first compound 0.6325 µM), 0.712; in assay [4] (first compound 2 µM), 0.718.

As to NCI-H1975, the relative viability was 0.333 in assay [1] (first compound 0.003 µM); 0.432 in assay [1] (first compound 0.009487 µM); 0.374 in assay [1] (first compound 0.03 µM); 0.49 in assay [1] (first compound 0.09487 µM); 0.429 in assay [1] (first compound 0.3 µM); 0.967 in assay [2] (first compound 0.003 µM). In addition, the relative viability in assay [2] (first compound 0.009487 µM) came to 0.968; in assay [2] (first compound 0.03 µM), 0.881; in assay [2] (first compound 0.09487 µM), 0.938; in assay [2] (first compound 0.3 µM), 0.87; in assay [3] (first compound 0.02 µM), 0.367; in assay [3] (first compound 0.2 µM), 0.281. Moreover, the relative viability in assay [3] (first compound 0.6325 µM) worked out at 0.353; in assay [3] (first compound 2 µM), 0.391; in assay [4] (first compound 0.02 µM), 0.663; in assay [4] (first compound 0.2 µM) it was 0.741; in assay [4] (first compound 0.6325 µM) it was 0.763; in assay [4] (first compound 2 µM) it was 0.815.

For the cell line NCI-H1993, the relative viability in assay [1] (first compound 0.003 µM) amounted to 1.2; in assay [1] (first compound 0.009487 µM), 1.46; in assay [1] (first compound 0.03 µM) it was 1.31; in assay [1] (first compound 0.09487 µM) it was 1.24; in assay [1] (first compound 0.3 µM), 1.7; in assay [2] (first compound 0.003 µM) it was 0.86. Moreover, the relative viability in assay [2] (first compound 0.009487 µM) is 0.946; in assay [2] (first compound 0.03 µM) it was 0.826; in assay [2] (first compound 0.09487 µM), 0.929; in assay [2] (first compound 0.3 µM) it was 1.06; in assay [3] (first compound 0.02 µM), 0.841; in assay [3] (first compound 0.2 µM), 1.01. The relative viability was 0.992 in assay [3] (first compound 0.6325 µM); 1.01 in assay [3] (first compound 2 µM); 0.434 in assay [4] (first compound 0.02 µM); 0.694 in assay [4] (first compound 0.2 µM); 0.736 in assay [4] (first compound 0.6325 µM); 0.65 in assay [4] (first compound 2 µM).

As for NCI-H2085, the relative viability in assay [1] (first compound 0.003 µM) was 1.03; in assay [1] (first compound 0.009487 µM), 1.13; in assay [1] (first compound 0.03 µM), 0.896; in assay [1] (first compound 0.09487 µM) it was 0.976; in assay [1] (first compound 0.3 µM) it was 1.04; in assay [2] (first compound 0.003 µM) it was 0.97. Further, the relative viability in assay [2] (first compound 0.009487 µM) was determined as 0.881; in assay [2] (first compound 0.03 µM), 0.838; in assay [2] (first compound 0.09487 µM) it was 0.919; in assay [2] (first compound 0.3 µM) it was 0.873; in assay [3] (first compound 0.02 µM) it was 1.08; in assay [3] (first compound 0.2 µM), 1.06. Moreover, the relative viability was 1.03 in assay [3] (first compound 0.6325 µM); 1 in assay [3] (first compound 2 µM); 1.04 in assay [4] (first compound 0.02 µM); 1.01 in assay [4] (first compound 0.2 µM); 1.06 in assay [4] (first compound 0.6325 µM); 1.03 in assay [4] (first compound 2 µM).
